Data from article PMC4685510, “A Cell Biologist’s Field Guide to Aurora Kinase Inhibitors” (Frontiers in Oncology, 2015).
“Also recorded” adds a separate entry of the source. Like-named read-outs stand apart in the source and are kept apart here.

Experiments:
[1] = biological target: T1, 363 human kinases (including Aurora A/B/C) (Homo sapiens, UniProt P45985); experiment: biochemical; assay type: biochemical; details: MKK4; for remaining activity at 0.1 µM: 100 nM; for remaining activity at 0.1 µM / remaining activity at 0.5 µM: read-out: % Enzyme Activity (relative to DMSO controls)
T1 sequence (P45985 1-399): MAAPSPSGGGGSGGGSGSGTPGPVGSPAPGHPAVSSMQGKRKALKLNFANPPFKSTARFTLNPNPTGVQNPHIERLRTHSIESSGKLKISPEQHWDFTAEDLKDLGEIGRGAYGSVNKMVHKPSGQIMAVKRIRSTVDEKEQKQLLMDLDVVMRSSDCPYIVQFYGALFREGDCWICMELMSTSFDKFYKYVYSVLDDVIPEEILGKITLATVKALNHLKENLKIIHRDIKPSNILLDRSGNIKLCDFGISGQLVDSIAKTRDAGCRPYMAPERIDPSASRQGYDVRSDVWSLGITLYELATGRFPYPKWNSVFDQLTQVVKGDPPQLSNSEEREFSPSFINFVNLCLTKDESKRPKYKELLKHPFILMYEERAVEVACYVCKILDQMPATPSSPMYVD
Text: (§4) However, the Aurora A/B selectivity ratios derived from our in vitro and in vivo data can be compared to prioritize inhibitors.

[2] = system: pLATS2(Ser 83) in HeLa cells; experiment: Substrate phosphorylation immunofluorescence assay, pLATS2(Ser 83), HeLa; assay type: cell-based, human
Protocol: (§1) We employed the protocol described in Figure 3D to analyze substrate phosphorylation in HeLa cells following treatment with all 10 inhibitors in dose–response. Asynchronous cells were incubated with vehicle (DMSO) or different inhibitor doses for 8 h and then fixed and labeled with a mixture of three antibodies directed against pLATS2(Ser 83), pH3(Ser 28), and MPM2 [which detects mitotic phosphoepitopes; ([86])]. While both the anti-pLATS2(Ser 83) and MPM2 antibodies are mouse monoclonals, they are of different IgG subclasses [IgG2b for anti-pLATS2(Ser 83) and IgG1 for MPM2], and can thus be detected with subclass-specific secondary antibodies (Table S3 in Supplementary Material).
(§2) In control mitotic cells, pLATS2(Ser 83) is concentrated in foci around the spindle poles (Figure 3E; top row – green arrow) and pH3(Ser 28) is on the mitotic chromatin (Figure 3E; top row – red arrow). Selective kinase inhibition should result in loss of one signal but not the other, as illustrated by the example images for specific conditions in Figure 3E (middle and bottom rows). Cells were imaged in 4 channels to visualize pLATS2(Ser 83), pH3(Ser 28), MPM2, and DNA (labeled with Hoechst) and mitotic cells were segmented based on their bright MPM2 labeling (Figure 3E). Intensity and area thresholds were set to select the pLATS2(Ser 83) foci and the pH3(Ser 28)-labeled chromatin in their respective channels in DMSO-treated control cells and the same thresholds were applied for inhibitor-treated cells. The mean fluorescence intensity per pixel was measured to assess the activities of the kinases targeting these two substrate phosphorylation sites.
(§3) Twelve thousand HeLa cells, 10,000 U2OS cells, or 8,000 RPE1 cells were seeded into 96-well glass-bottom Sensoplates (Greiner) 16 h before inhibitor addition. Prior to seeding, the glass-bottom plates were coated with poly-L-lysine (Sigma). […] After 8 h cells were fixed with 4% PFA for 20 min at room temperature. The fixed cells were washed with PBS. For immunostaining, cells were permeabilized and blocked with PBS containing 10% normal donkey serum (Jackson ImmunoResearch) and 0.1% Triton-X100 for 1 h at room temperature. Primary antibodies against phospho-LATS2 (Ser 83), phospho-histone H3(Ser 28), and anti-phospho-MPM2 (see Table S3 in Supplementary Material) were incubated for 1 h at room temperature. […] Cells were then washed twice with PBS containing 0.1% Triton-X100. Image acquisition in four channels was performed using a CV7000 spinning disk confocal system (Yokogawa Electric Corporation) with a 40 × 0.95 NA U-PlanApo objective and 2560 × 2160 pixel sCMOS camera. […] Fifty fields per well were imaged with quadruplicate wells for each condition. Image analysis was done using the CV7000 image analysis software (Yokogawa Electric Corporation). Between 100 and 1,000 mitotic cells per condition were segmented applying object identification parameters to select for bright MPM2 labeling. Using a nuclear identifier protocol, minimum intensity thresholds were set for pLATS2(Ser 83) and the pH3(Ser 28) signals, and the resulting identified objects were eroded, dilated, and filtered for size by user-defined thresholds. For only the MPM2-positive mitotic cells, the mean fluorescence intensity of the identified pLATS2(Ser 83) and pH3(Ser 28) objects was measured, and the average intensity per cell per well was calculated. The same thresholds were applied for all of the inhibitor-treated samples, which were processed, imaged, and analyzed in parallel with control DMSO-treated cells. Data were fit using a four-parameter, variable slope fit in Prism (GraphPad). Primary and secondary antibody dilutions can be found in Table S3 in Supplementary Material.

[3] = system: pLATS2(Ser 83) in U2OS cells; experiment: Substrate phosphorylation immunofluorescence assay, pLATS2(Ser 83), U2OS; assay type: cell-based, human; details: for IC50: Homo sapiens, read-out: pLATS2 (Ser83) IC50
Protocol: as §1, §2, §3

[4] = system: pH3(Ser 28) in HeLa cells; experiment: Substrate phosphorylation immunofluorescence assay, pH3(Ser 28), HeLa; assay type: cell-based, human; details: for pHistone H3 (Ser28) IC50: 8 h inhibitor treatment
Protocol: (§5) After 8 h cells were fixed with 4% PFA for 20 min at room temperature. The fixed cells were washed with PBS. For immunostaining, cells were permeabilized and blocked with PBS containing 10% normal donkey serum (Jackson ImmunoResearch) and 0.1% Triton-X100 for 1 h at room temperature. Primary antibodies against phospho-LATS2 (Ser 83), phospho-histone H3(Ser 28), and anti-phospho-MPM2 (see Table S3 in Supplementary Material) were incubated for 1 h at room temperature. […] Cells were then washed twice with PBS containing 0.1% Triton-X100. […] Fifty fields per well were imaged with quadruplicate wells for each condition. Image analysis was done using the CV7000 image analysis software (Yokogawa Electric Corporation). Between 100 and 1,000 mitotic cells per condition were segmented applying object identification parameters to select for bright MPM2 labeling. Using a nuclear identifier protocol, minimum intensity thresholds were set for pLATS2(Ser 83) and the pH3(Ser 28) signals, and the resulting identified objects were eroded, dilated, and filtered for size by user-defined thresholds. […] The same thresholds were applied for all of the inhibitor-treated samples, which were processed, imaged, and analyzed in parallel with control DMSO-treated cells. Data were fit using a four-parameter, variable slope fit in Prism (GraphPad).

[5] = system: pH3(Ser 28) in RPE1 cells; experiment: Substrate phosphorylation immunofluorescence assay, pH3(Ser 28), RPE1; assay type: cell-based, human
Protocol: as §5

[6] = system: pH3(Ser 28) in U2OS cells; experiment: Substrate phosphorylation immunofluorescence assay, pH3(Ser 28), U2OS; assay type: cell-based, human
Protocol: as §5

[7] = biological target: Aurora B; details: cited from earlier work; for IC50: read-out: Aurora B IC50 (Published)
[8] = biological target: 363 human kinases (including Aurora A/B/C) (Homo sapiens, UniProt P00519); experiment: biochemical; assay type: biochemical; details: ABL1, [ATP] 40 µM
Chain of 363 human kinases (including Aurora A/B/C) (Homo sapiens, UniProt P00519) (P00519 whole entry): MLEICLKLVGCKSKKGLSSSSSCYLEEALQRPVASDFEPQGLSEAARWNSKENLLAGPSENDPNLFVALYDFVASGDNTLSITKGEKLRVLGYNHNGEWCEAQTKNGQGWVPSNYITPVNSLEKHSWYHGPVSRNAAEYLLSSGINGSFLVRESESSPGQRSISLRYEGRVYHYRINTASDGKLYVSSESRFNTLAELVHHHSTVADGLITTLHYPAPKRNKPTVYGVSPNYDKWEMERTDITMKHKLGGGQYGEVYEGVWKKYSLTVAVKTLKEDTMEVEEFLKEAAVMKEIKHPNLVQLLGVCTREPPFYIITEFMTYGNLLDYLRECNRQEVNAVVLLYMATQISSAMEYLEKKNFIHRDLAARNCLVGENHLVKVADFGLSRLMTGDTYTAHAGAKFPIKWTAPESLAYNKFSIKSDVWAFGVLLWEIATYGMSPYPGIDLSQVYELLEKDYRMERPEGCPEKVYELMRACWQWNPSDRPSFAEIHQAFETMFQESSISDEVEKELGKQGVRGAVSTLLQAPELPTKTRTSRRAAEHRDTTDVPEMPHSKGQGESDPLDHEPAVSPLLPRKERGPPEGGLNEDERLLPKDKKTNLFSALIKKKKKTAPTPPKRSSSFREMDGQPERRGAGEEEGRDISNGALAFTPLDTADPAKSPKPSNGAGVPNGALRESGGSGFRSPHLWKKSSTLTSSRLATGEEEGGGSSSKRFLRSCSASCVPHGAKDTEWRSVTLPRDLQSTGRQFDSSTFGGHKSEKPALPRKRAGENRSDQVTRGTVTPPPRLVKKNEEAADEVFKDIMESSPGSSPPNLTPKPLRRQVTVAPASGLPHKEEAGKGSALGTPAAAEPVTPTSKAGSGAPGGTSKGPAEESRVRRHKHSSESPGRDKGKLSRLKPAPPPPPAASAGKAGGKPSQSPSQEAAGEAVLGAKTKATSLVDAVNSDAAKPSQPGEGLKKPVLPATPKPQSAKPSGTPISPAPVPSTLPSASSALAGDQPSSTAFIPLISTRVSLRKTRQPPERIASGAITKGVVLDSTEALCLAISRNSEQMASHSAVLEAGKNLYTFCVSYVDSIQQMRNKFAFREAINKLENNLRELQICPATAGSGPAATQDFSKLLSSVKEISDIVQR
Text: as §4

[9] = system: U2OS cells; experiment: G2 duration live imaging assay (GFP-PCNA; H2B-RFP), U2OS; assay type: cell-based; details: Homo sapiens, read-out: G2/M (G2 duration) IC50
[10] = Homo sapiens, 8 h, read-out: pHistone H3 (Ser28) IC50
[11] = 500 nM, read-out: % Enzyme Activity (relative to DMSO controls)

For `CCn1cc(-c2ccnc3[nH]c(-c4cccc(CN(C)C)c4)cc23)c(-c2ccc(NC(=O)N(C)C)cc2)n1` [GSK1070916], the remaining activity at 0.1 µM [1] was 90.1%, the “pLATS2 (Ser83) IC50” value ([2]; HeLa, 8 h inhibitor treatment) was “NE (100 nM); also recorded: NE@100 nM” and the “pLATS2 (Ser83) IC50” value ([3]; 8 h inhibitor treatment) was “NE@200 nM”. The “Concentration completely eliminating pH3(Ser 28) labeling without affecting pLATS2(Ser 83) labeling” value [4] was < 100 nM, the IC50 [4, 10] was 6 nM and the IC50 ([5]; Homo sapiens, RPE-1, 8 h, read-out: pHistone H3 (Ser28) IC50) was 15 nM. The IC50 [6, 10] was 8 nM and the Ki ([7]; ref 61, read-out: Aurora B-INCENP Ki (Published)) was 0.38 nM.
In the case of `O=C(c1cccc(Cl)c1F)N1CCN(Cc2cccc(Nc3nccs3)n2)CC1` [MK-8745], the “% Enzyme Activity (relative to DMSO controls)” value ([8]; 500 nM) is reported as 76.80%, the remaining activity at 0.5 µM [8, 11] is reported as 77.7% and the “% Enzyme Activity (relative to DMSO controls)” value ([1]; 500 nM) is reported as 89.78%. It also gave a remaining activity at 0.5 µM ([1]; 500 nM) of 90.9%, an IC50 ([2]; HeLa, 8 h inhibitor treatment, read-out: pLATS2 (Ser83) IC50) of 610 nM and an IC50 ([2]; Homo sapiens, HeLa, 8 h, HeLa, 8 h inhibitor treatment, read-out: pLATS2 (Ser83) IC50) of 600 to 800 nM. The “Lowest concentration to maximally inhibit Aurora A in cells relative to lowest AZD1152-HQPA concentration to fully inhibit Aurora B” value ([2]; cellular assays) was > 100 fold, the IC50 ([3]; 8 h inhibitor treatment) was 1700 nM and the “pHistone H3 (Ser28) IC50” value [4] was “NE (9 μM); also recorded: NE@9 µM”. The “pHistone H3 (Ser28) IC50” value ([5]; RPE1, 8 h inhibitor treatment) was “NE@15 µM”, the “pHistone H3 (Ser28) IC50” value ([6]; 8 h inhibitor treatment) was “NE@15 µM” and the IC50 [9] was 437 nM. The IC50 ([7]; ref 57) was 280 nM.
For `O=C(O)[C@]1(Cc2cccc(Nc3nccs3)n2)CC[C@@H](Oc2cccc(Cl)c2F)CC1` [MK-5108], the remaining activity at 0.1 µM ([8]; 100 nM, read-out: % Enzyme Activity (relative to DMSO controls)) was 15.6%, the remaining activity at 0.5 µM [8, 11] was 1.92% and the remaining activity at 0.1 µM [1] was 95.7%. For the same compound, the remaining activity at 0.5 µM ([1]; 500 nM) was 97.7%, the IC50 ([2]; Homo sapiens, HeLa, 8 h, read-out: pLATS2 (Ser83) IC50, HeLa, 8 h inhibitor treatment) was 600 to 800 nM and the IC50 ([2]; read-out: pLATS2 (Ser83) IC50, HeLa, 8 h inhibitor treatment) was 610 nM. The IC50 ([3]; 8 h) was 1200 nM, the “pHistone H3 (Ser28) IC50” value [4] was “NE (9 μM); also recorded: NE@9 μM” and the inhibition at 15 µM ([5]; Homo sapiens, RPE-1, read-out: pHistone H3 (Ser28) inhibition at highest concentration tested) was 80%. For the same compound, the inhibition at 15 µM ([6]; Homo sapiens, read-out: pHistone H3 (Ser28) inhibition at highest concentration tested) was 20%, the IC50 [9] was 995 nM and the IC50 ([7]; ref 56) was 14.1 nM.
